# Reference: US20200010482A1, “INHIBITORS OF BETA SECRETASE” (Janssen Pharmaceutica NV, priority 2017, published 2020)
# Columns and labels:
# [1] = biological target: β-secretase I (BACE1) (Homo sapiens, UniProt P56817); assay: Biochemical assay, automated (CyclOps), BACE1; settings: automated CyclOps bioassay
# Description: (§1) Unless otherwise indicated all biochemicals were purchased from Sigma-Aldrich Chemical Company, Poole, Dorset, U.K. and non-aqueous solvents, of analytical or higher grade, were purchased from ThermoFisher Scientific, Loughborough, U.K. MilliQ water (Elix 5 & MilliQ Gradient; Merck Millipore) was used as the base aqueous solvent to make up the biological buffers. Base assay buffer was prepared by adding a 50 mM solution of citric acid (1.00244; Merck Biosciences) to stirring solution of 50 mM trisodium citrate (1.06448; Merck Biosciences) until a final pH of 5.0 was achieved. […] All assays were routinely carried out in 384-well assay plates (Costar 4514; Corning Life Sciences) and incubated at 37±1° C. for 60 min. prior to reading the endpoint fluorescence intensity. The (7-methoxyl coumarin-4-yl)acetic acid based substrate β-secretase substrate VI (M2465; Bachem) was prepared as a 1 mM stock in 100% DMSO (D/4121/PB08; ThermoFisher). Assay buffer was prepared by adding DMSO to base buffer to a final concentration of 1% (vol./vol.). β-secretase I (18.64 μM; “BACE1”) and β-secretase II (4.65 μM; “BACE2”) were obtained from Janssen Pharmaceutica, Beerse, Belgium and were stored as frozen aliquots (˜20 μl) and thawed as required.
# (§2) Typically 12.5 μl of assay buffer was dispensed to rows B to P of the assay plate. To row A was added 18.75 μl of test compound diluted appropriately in assay buffer. A 6.25 μl aliquot of sample was transferred from row A to row B and the sample mixed three times by pipette. The process was repeated down the plate and 6.25 μl of solution discarded at row N post-mix. Rows O and P were designated as the positive and negative controls. To row P was added 6.25 μl base buffer. To rows A to O was added 6.25 μl enzyme (freshly prepared 40 nM BACE1 or 40 nM BACE2) diluted in base buffer. To initiate the assay 6.25 μl of freshly prepared 80 μM substrate, made up by diluting the 1 mM in 100% DMSO solution into HPLC grade water (Optima W6-212; ThermoFisher), was added to all the wells. The assay plate was covered and incubated at 37±1° C. for 60 min. The fluorescence intensity of the wells was read at 360/405 nm (excitation/emission) utilising a nine reads per well protocol (50 ms integration; density of 3, 0.25 mm spacing; SpectraMAX Paradigm plate reader; TUNE cartridge; SoftMax Pro v 6.3 software; Molecular Devices UK Ltd., Wokingham, Berkshire, UK) and outputting the median value of the nine reads as a text file. Data analysis was carried out using Prism software v 6.3 (GraphPad Inc., San Diego, Calif., USA) using the non-linear regression analysis models supplied by the vendor. For IC50 determinations the four parameter logistic variable slope model was used to fit the raw fluorescence intensity data with the ‘bottom’ fixed to the negative control.
# (§3) The CyclOps bioassay module consisted of a fraction collection station, a reagent station, liquid handling robotics, plate store and an integrated plate reader (SpectraMAX Paradigm, TUNE cartridge, SoftMax Pro v 6.3; Molecular Devices). The fraction collection station composed of a 384 well collection plate (P-384-240SQ-C; Axygen, Union City, Calif., USA) mounted on a H-portal carriage (Festo AG & Co. KG, Esslingen, Germany), a syringe drive and a two-way six port injection valve fitted with a 200 μl loop (VICI AG International, Schenkon Switzerland). The output of the injection valve was addressable to all the positions of a 384 well collection plate. The reagent station consisted of hydraulically cooled (10-12° C.) aluminium segments; each manufactured to house a SBS microtiter plate footprint. Independent addressable reagent stations were housed within these sections. Where required, custom aluminium housings were used to accommodate standard laboratory plastic ware (e.g. Eppendorf tubes, Falcon tubes, etc.). As and when required the reagent reservoirs were covered and the lids contained holes through which the Teflon-coated probe could access solutions. […]
# [2] = biological target: T1, β-secretase II (BACE2) (Homo sapiens, UniProt Q9Y5Z0); assay: Biochemical assay, automated (CyclOps), BACE2; settings: automated CyclOps bioassay
# T1 sequence (Q9Y5Z0 63-518): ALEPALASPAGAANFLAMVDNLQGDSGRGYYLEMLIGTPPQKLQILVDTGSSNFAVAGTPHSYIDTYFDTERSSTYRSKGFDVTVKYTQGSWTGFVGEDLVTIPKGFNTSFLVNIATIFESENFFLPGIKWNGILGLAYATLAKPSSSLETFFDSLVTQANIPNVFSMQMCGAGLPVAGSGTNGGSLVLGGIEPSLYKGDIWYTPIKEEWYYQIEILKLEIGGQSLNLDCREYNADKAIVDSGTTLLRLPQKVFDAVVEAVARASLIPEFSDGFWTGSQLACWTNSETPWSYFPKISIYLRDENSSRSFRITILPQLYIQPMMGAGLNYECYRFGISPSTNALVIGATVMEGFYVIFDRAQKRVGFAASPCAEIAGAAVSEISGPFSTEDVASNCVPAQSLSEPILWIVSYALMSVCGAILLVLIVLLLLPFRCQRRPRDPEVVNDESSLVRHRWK
# Description: as §1, §2, §3
# β-secretase I (BACE1), sequence (P56817 46-501): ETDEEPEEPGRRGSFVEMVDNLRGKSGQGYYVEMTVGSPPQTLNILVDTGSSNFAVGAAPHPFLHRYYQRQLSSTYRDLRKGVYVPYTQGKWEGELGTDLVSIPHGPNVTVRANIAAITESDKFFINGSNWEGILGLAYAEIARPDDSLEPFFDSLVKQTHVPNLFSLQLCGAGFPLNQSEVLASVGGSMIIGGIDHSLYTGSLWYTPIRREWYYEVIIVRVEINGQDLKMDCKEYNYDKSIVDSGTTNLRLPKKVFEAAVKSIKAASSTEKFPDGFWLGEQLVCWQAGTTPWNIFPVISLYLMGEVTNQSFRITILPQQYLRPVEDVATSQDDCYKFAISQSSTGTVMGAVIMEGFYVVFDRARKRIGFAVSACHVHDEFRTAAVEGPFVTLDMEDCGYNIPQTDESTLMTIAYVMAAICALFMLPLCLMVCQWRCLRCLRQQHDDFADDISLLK
SMILES,AUTOMATED ASSAY BACE1 pIC50 [1],AUTOMATED ASSAY BACE2 pIC50 [2],IC50 ([1]; read-out: AUTOMATED ASSAY BACE1 pIC50 (converted)) [nM],IC50 ([2]; read-out: AUTOMATED ASSAY BACE2 pIC50 (converted)) [nM]
COc1ncc(-c2ccc(Cl)c(C)c2)c2c1C[C@]1(c3ccc(F)cc3F)N=C(N)SC[C@@H]1C2 [Compound 59],7.68,7.15,–,–
COc1ncc(-c2cccc3cnn(C)c23)c2c1C[C@]1(c3ccc(F)cc3F)N=C(N)SC[C@@H]1C2 [Compound 127],6.77,5.6,–,–
COc1ncc(-c2cccc3c2OCCC3)c2c1C[C@]1(c3ccc(F)cc3F)N=C(N)SC[C@@H]1C2 [Compound 128],7.01,6.19,–,–
COc1ncc(-c2coc3ccccc23)c2c1C[C@]1(c3ccc(F)cc3F)N=C(N)SC[C@@H]1C2 [Compound 130],7.4,7.03,–,–
COc1ncc(-c2cccc3cnccc23)c2c1C[C@]1(c3ccc(F)cc3F)N=C(N)SC[C@@H]1C2 [Compound 132],7.82,7.16,–,–
COc1ncc(-c2csc3ccccc23)c2c1C[C@]1(c3ccc(F)cc3F)N=C(N)SC[C@@H]1C2 [Compound 133],8.6,7.67,–,–
COc1ncc(-c2ccccc2)c2c1C[C@]1(c3cc(OCc4ccccc4)ccc3F)N=C(N)SC[C@@H]1C2 [Compound 138],–,–,61.7,32.4
COc1ccc(OC)c(-c2cnc(OC)c3c2C[C@H]2CSC(N)=N[C@@]2(c2cc(OCc4ccccc4F)ccc2F)C3)c1 [Compound 139],5.55,4.97,–,–
COc1ncc(-c2ccccc2C)c2c1C[C@]1(c3cc(OCC4CCC4)ccc3F)N=C(N)SC[C@@H]1C2 [Compound 142],8.4,7.28,–,–
COc1ccc(F)cc1-c1cnc(OC)c2c1C[C@H]1CSC(N)=N[C@@]1(c1cc(OCC3CCOCC3)ccc1F)C2 [Compound 143],6.43,4.78,–,–
COc1ncc(-c2ccccc2C)c2c1C[C@]1(c3cc(OCCc4c(C)noc4C)ccc3F)N=C(N)SC[C@@H]1C2 [Compound 144],7.42,6.43,–,–
COc1cccc(COc2ccc(F)c([C@]34Cc5c(OC)ncc(-c6c(C)noc6C)c5C[C@H]3CSC(N)=N4)c2)c1 [Compound 145],6.89,5.52,–,–
COc1ncc(-c2c(C)noc2C)c2c1C[C@]1(c3cc(OC4CCOCC4)ccc3F)N=C(N)SC[C@@H]1C2 [Compound 146],6.74,6.63,–,–
COc1ncc(-c2c(C)noc2C)c2c1C[C@]1(c3cc(OCc4cccc(C#N)c4)ccc3F)N=C(N)SC[C@@H]1C2 [Compound 147],7.7,6.64,–,–
COc1ncc(-c2c(C)noc2C)c2c1C[C@]1(c3cc(OCCOC4CCCCC4)ccc3F)N=C(N)SC[C@@H]1C2 [Compound 148],6,5.19,–,–
COc1ncc(-c2c(C)noc2C)c2c1C[C@]1(c3cc(OCCC4CCCCC4)ccc3F)N=C(N)SC[C@@H]1C2 [Compound 149],5.09,5.17,–,–
COc1ncc(-c2c(C)noc2C)c2c1C[C@]1(c3cc(OCCC4CCCC4)ccc3F)N=C(N)SC[C@@H]1C2 [Compound 150],6.12,5.3,–,–
COc1cc(C)c(-c2cnc(OC)c3c2C[C@H]2CSC(N)=N[C@@]2(c2cc(OCC4CCOCC4)ccc2F)C3)cn1 [Compound 152],7.52,5.65,–,–
COc1ncc(-c2c(C)noc2C)c2c1C[C@]1(c3cc(OCc4c(C)noc4C)ccc3F)N=C(N)SC[C@@H]1C2 [Compound 153],6.73,6.64,–,–
COc1ncc(-c2ccccc2)c2c1C[C@]1(c3cc(OCc4ccc(F)cc4)ccc3F)N=C(N)SC[C@@H]1C2 [Compound 154],7.51,7.88,–,–
COc1ncc(-c2c(C)noc2C)c2c1C[C@]1(c3cc(OCC4CCC4)ccc3F)N=C(N)SC[C@@H]1C2 [Compound 155],7.77,6.12,–,–
COc1ncc(-c2ccccc2F)c2c1C[C@]1(c3cc(OCCC#N)ccc3F)N=C(N)SC[C@@H]1C2 [Compound 156],6.32,6.36,–,–
